Data published in patent US20160287565A1, “COMBINATION THERAPY FOR TREATING DISORDERS ASSOCIATED WITH EXCESS CORTISOL PRODUCTION” (Millendo Therapeutics, Inc., priority 2015, published 2016).

Legend:
[1] = test system: Dogs; test: ATR-101 in dogs, serum steroid and steroid precursor levels by LC-MS/MS pre- and post-ACTH stimulation; assay type: in vivo, dog; settings: 3 mg/kg daily 7 days then 30 mg/kg 7 days, oral gavage
Procedure: Changes in steroid and steroid intermediate levels are shown as % reduction as compared to maximum level as measured on Day 0. *Day 1 data used for maximum steroid level. **Day 3 data used for maximum steroid level.
Dogs were administered daily doses of 3 mg/kg of ATR-101 for 7 days by oral gavage, and then 30 mg/kg for 7 days by oral gavage. Blood was collected on day 14 to measure basal steroid and steroid precursor serum levels (pre-ACTH stimulation) and steroid/steroid precursor levels post-ACTH stimulation by LC-MS/MS. For ACTH stimulation, 5 μg/kg (not to exceed 250 μg) of CORTROSYN™ (also known as cosyntropin or synthetic ACTH) was administered via bolus i.v. administration, and blood samples were collected 1 hour post-CORTROSYN™ administration. Changes in steroid and steroid precursor levels are shown as % reduction as compared to maximum level as measured on Day 0, except as noted (see, FIG. 2; *Day 1 data used for maximum steroid level; **Day 3 data used for maximum steroid level).

[2] = test system: human adult patients with Cushing's disease; settings: cited from earlier work
[3] = test system: human, adult patients with Cushing's disease; settings: cited from earlier work

Structure (SMILES)	synthesis of steroids and steroid precursors produced in the adrenal cortex ([1]; day 14, FIG. 4)	11-deoxycorticosterone level ([1]; day 14 serum)	11-deoxycortisol level ([1]; day 14 serum)	testosterone level ([1]; day 14 serum)	secretion of ACTH ([2]; during LCI699 treatment (day 70) vs day 1, FIG. 2A)	testosterone levels (in females) ([2]; during LCI699 treatment (day 70), 8 females, FIG. 2C)	11-deoxycortisol level ([2]; during LCI699 treatment (day 70), FIG. 2B)	11-deoxycorticosterone levels ([2]; during LCI699 treatment (day 70), FIG. 2D)	serum cortisol ([2]; during LCI699 treatment (day 70), up to 100 mg/day b.i.d., n=12)	females developing acne ([3]; 22-week treatment course)	females developing hirsutism ([3]; 22-week treatment course)	females with elevated testosterone who developed adverse symptoms of androgen excess ([3]; 22-week treatment course)	women with above normal testosterone levels during the treatment course ([3]; of the 12 women who completed 22 weeks, normal range 2-45 ng/dL, 4-60 mg/day)
CC(C)c1cccc(C(C)C)c1NC(=O)NCC1(c2ccc(N(C)C)cc2)CCCC1 [ATR-101, N-(2,6-bis(1-methylethyl)-phenyl)-N′-((1-(4-(dimethylamino)phenyl)cyclopentyl)-methyl)urea]	broad inhibitory effects	decreased	decreased	decreased									
N#Cc1ccc([C@H]2CCc3cncn32)c(F)c1 [osilodrostat]					increased secretion of ACTH	increased	build-up	increased	decrease in serum cortisol	three	two	Four	9
